Here are results for one compound from patent US10701931B2, “Mosquito activating formulations” (Commonwealth Scientific and Industrial Research Organisation, priority 2015, dated 2020).

SMILES strings stand for the structures. Values joined by “and” are separate entries in the source; they are usually repeats but may differ in a detail not shown here. Identical values can stand only once.

Experiment [1] relates to Anopheles farauti antennae. The experiment in a line: Electroantennogram (EAG), non bloodfed females. The conditions noted are these: chemicals at 1/10 concentrations. The method, then:
(§1) In order to assess Y-tube olfactometry experiments and field trials using an independent technique and to investigate the physiological basis of the observed activation and attraction behaviour, electroanntennogram (EAG) and electropalpogram (EPG) studies were performed on A. stephensi female mosquitoes. EAG studies were also performed on Anopheles farauti, Culex annulirostris and Aedes aegypti female mosquitoes.
(§2) Five to eight days Anopheles stephensi, two to fourteen days old Culex annulirostris and Aedes aegypti as well as four days old Anopheles faraulti non-blooded females, fed on 10% sucrose ad-libitum and then starved for >12 hours, were used. Mosquito head was excised and placed on the reference electrode coated with electrode gel (Parker Laboratories, Orange, N.J.). The distal end of the antennae or palp (<0.5 mm), cut to ensure a good electrical contact, were carefully placed on the recording electrode (Syntech, Germany). Signals were fed to a 10× amplifier and processed with IDAC 4 and PC-based interface and EAG software package (Syntech, Germany).
(§3) Thus 1-octen-3-ol was used in the EAG analysis as a positive control with thio compounds, (E and Z)-1-methylthio-1-propene, 3-methyl-thio-1-propanol, ally methyl sulphide, and carbon dioxide (5%) and mineral oil (negative control). Pure chemicals were diluted in mineral oil to a 10 times v/v stock solution, from which decadal dilutions were made. A 10 μl aliquot of each solution was applied to a filter paper strip (1×3.5 cm; Whatman No. 4, Fisher Scientific) and the solvent was evaporated under a fume hood before inserting the paper strip into 5 ml disposable plastic syringe (Terumo syringes). A 500 ms pulse (5 ml/s) was delivered by stimulus controller CS-55 (Syntech, Germany) to deliver chemical stimulants to a humidified continuous air flow (10 ml/s) over the electrophysiolgical preparation. The chemicals were tested randomly and applied with 0.5-1 min intervals between stimulations.
(§4) Initial screening was performed using a 10 times dilution (1/10, v/v) source dose solution. Then 1-methylthio-1-propene and 1-octen-3-ol were selected for further dose-response study. A minimum of five mosquitoes were tested for each compound to calculate the average EAG amplitude±standard error (SE).

The subject of experiment [2] is Anopheles stephensi antennae. The experiment in a line: Electroantennogram (EAG), non bloodfed females. The method, then:
as §1, §2, §3, §4

Another experiment concerns Anopheles farauti s.l. The experiment in a line: Field trial with CDC light traps, Anopheles farauti s.l catch. The class given is in vivo. The note with it: for Anopheles farauti s.l catch numbers: CDC light trap, one night, treatment per Table 3. The method, then:
(§5) Field trials based on an imperfect Latin square design compared the attraction of An. farauti to MTPE with and without CO2. Treatments included CO2 alone, CO2 in combination with MTPE lure, or MTPE lure alone. Centres for Disease Control and Prevention (CDC) light traps were used to deliver MTPE lures and/or CO2. MTPE lures consisted of 500 μl of MTPE in mineral oil, 10-100,000 ppm spread on filter paper. MTPE/mineral oil mixtures were spread on filter paper, rolled into a tight wick, and inserted into a specimen tube. Specimen tubes where then wired to a CDC trap. CO2 was delivered using 1 kg dry ice, hung above a CDC light trap, as per standard sampling protocols. MTPE+/−CO2 combinations were randomised between 4 trap positions over three nights. Traps were placed at least 50 m apart to manage interference and were set between 5 pm and 7 am each night. Trap catches were subsequently returned to the laboratory, counted and identified as “Anopheles farauti s.l” or “other”.
(§6) As CO2 is a known mosquito attractant, all catches were compared to CO2 alone.

In experiment [3] the test system is Anopheles farauti maxillary palps. The experiment in a line: Electropalpogram (EPG), non bloodfed females. The conditions noted are these: chemicals at 1/10 concentrations, CO2 5%.
Experiment [4] concerns Anopheles stephensi maxillary palps. The experiment in a line: Electropalpogram (EPG), non bloodfed females. The method, then: as §1, §2, §3, §4
In the next experiment the test system is Anopheles stephensi. The experiment in a line: Y-tube olfactometer, measurement of attraction against CO2/1-octen-3-ol positive control. Type of experiment: in vivo. The method, then: Attraction to these components was compared to a standard “positive control” known to elicit a directional response in An. stephensi mosquitoes placed in an olfactometer. The standard used as a positive control is a mix of compressed air, 5% CO2 and an octenol source. Unpaired t-test was used to test for the differences in means for all data sets presented.
The MR4 strain of An. stephensi (New Delhi, India) was maintained at 27° C., 70% RH, 12:12 L:D and 30 min dawn/dusk periods). 4 to 7 day old female mosquitoes, that had never received a blood meal, were used in experiments. Mosquitoes were maintained on 10% sugar solution ad libitum but starved for 12 hr prior to testing.
The Y tube olfactometer is made entirely of glass and consists of a release chamber, the Y tube itself, and a trap chamber attached to each arm (FIG. 1). Each trap chamber is divided in two by a fine glass filter. On the far side of those filters, the trap chambers can connect to charcoal filters or to gas bags or gas cylinders. Air is pulled through the olfactometer by connecting the release chamber to a vacuum tap which vents the contents of the tube. Standard air flow (0.4 L/minute) is maintained using a 0.1-1.2 LPM flow meter (John Morris Pty, LTD). The air volume of the Y-tube is approximately 1 litre and is therefore replaced every 2.5 minutes.
1 μl 10^−4% 1-octen-3-ol in mineral oil (Sigma Aldrich) was spotted on 1 cm^2 Whatman filter paper.
5% CO2 by volume was added to a 10 L FlexFilm gasbag (SKC Inc.) of compressed air.
When a CO2/1-octen-3-ol mix was required, 5% CO2 was delivered by connecting the gas bag to the requisite Y tube arm and placing the 1-octen-3-ol treated filter paper between the gasbag inlet and the glass filter of the trap chamber.
All experiments were run under PC2 quarantine conditions, at 27° C., 70% RH, under infrared light. Observers were always in the same position during the tests, at the trap chamber end of the olfactometer, between the 2 arms of the Y tube.
Using an aspirator, 25-30 starved female An. stephensi were introduced into the release chamber (FIG. 1).
After each test, mosquitoes were carefully aspirated from the apparatus by disconnecting constituent parts. The apparatus was flushed with clean air (charcoal filters only) for 5 minutes before the next batch of stimuli was introduced.
A total of 10 replicates (different batches of mosquitoes) were run for each stimuli assessment. Treatment and control arms were alternated between replicates. After completion of 10 replicates, the apparatus was rinsed in acetone and allowed to dry overnight.
Once the range of doses that “activated” mosquitoes had been established, the capacity of those concentrations to initiate a directional response was tested. In this instance, experiments were conducted in comparison to a positive control of CO2/1-octen-3-ol [[…]]. […] A positive control was used to assess whether test stimuli were at least as attractive as a standard directional stimulus.

In a further experiment the test system is Total mosquito. The experiment in a line: Field trial with CDC light traps, total mosquito catch. Type of experiment: in vivo. The conditions noted are these: CDC light trap, one night, treatment per Table 3. How it is done:
as §5, §6

As for `CC=CSC` [MTPE, 1-methylthio-1-propene], the “EAG response, comparison among tested chemicals” value in experiment [1] and in experiment [2] (chemicals at 1/10 concentrations) was “strongest response” in each case. For the same compound, the “EAG response, dose dependence” value in experiment [2] (decadal dilutions, n=7) is recorded as “dose dependant”. Besides, the “Attractancy in field trial, compared to CO2 alone” value in the experiment with Anopheles farauti s.l (100 ppm) is reported as “attractive”; with Anopheles farauti s.l (10,000 ppm) it was “not attractive, possibly repellent”; with Anopheles farauti s.l (100,000 ppm), “not attractive, possibly repellent”. In addition, the “Anopheles farauti s.l catch numbers” value in the experiment with Anopheles farauti s.l (100 ppm MTPE lure alone) was 28; in the experiment with Anopheles farauti s.l (CO2 + 1000 ppm MTPE lure) it was 89 and 78 and 63. In the experiment with Anopheles farauti s.l (1,000 ppm MTPE with CO2), the “Attractancy in field trial, effect of CO2” value is reported as “CO2 synergises attractancy”. The “Dose dependence of attractancy in field trial” value with Anopheles farauti s.l (MTPE lures 100-100,000 ppm) is recorded as “Dose dependent attractancy”. The “EPG response, comparison among tested chemicals” value was “strongest response” in experiment [3] and “strongest response” in experiment [4] (chemicals at 1/10 concentrations, CO2 5%). Moreover, in experiment [4] (chemicals at 1/10 concentrations, CO2 5%, n=7), the “EPG response compared to mineral oil control” value is “significant responses”. The “EPG response, dose dependence” value in experiment [4] (decadal dilutions, n=6) was “dose dependant”. For the same compound, the “Attractiveness relative to 1-octen-3-ol/CO2” value in the experiment with Anopheles stephensi (at 0.0001%) was “more attractive”. Besides, the “Attraction (against CO2 + 1-octen-3-ol)” value in the experiment on Anopheles stephensi (dilution 0.0001 (10^-4)%, An. stephensi females) is listed as “Yes”. The “Total mosquito catch numbers” value was 189 with Total mosquito (100 ppm MTPE lure alone); 203 and 264 and 358 with Total mosquito (CO2 + 1000 ppm MTPE lure).
